The target of one experiment is T1, 5HT1A receptors (Rattus norvegicus, UniProt P19327).
T1 construct: membranes of the rat hippocampus; from tissue; host or cells: rat hippocampus membranes
T1 sequence (P19327 1-422): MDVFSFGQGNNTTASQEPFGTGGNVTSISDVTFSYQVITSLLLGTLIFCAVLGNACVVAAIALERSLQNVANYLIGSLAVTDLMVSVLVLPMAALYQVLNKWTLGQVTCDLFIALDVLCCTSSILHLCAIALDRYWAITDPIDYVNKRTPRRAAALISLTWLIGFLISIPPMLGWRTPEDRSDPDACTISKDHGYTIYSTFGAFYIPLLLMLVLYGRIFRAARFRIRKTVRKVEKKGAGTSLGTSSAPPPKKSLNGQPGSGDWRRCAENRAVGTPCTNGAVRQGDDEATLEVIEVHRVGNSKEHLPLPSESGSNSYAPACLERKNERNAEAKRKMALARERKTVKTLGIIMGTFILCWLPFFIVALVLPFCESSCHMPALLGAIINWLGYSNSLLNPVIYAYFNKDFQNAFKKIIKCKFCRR
Kind of experiment: Binding test: displacement of [^3 H]-8-OH-DPAT from membranes of the rat hippocampus (5HT1A). Conditions: for Ki: rat hippocampus membranes, [^3 H]-8-OH-DPAT, read-out: BINDING pKi 5HT1A (converted). The protocol: (§1) This test is carried out according to the protocol of PEROUTKA, S.J. ["Selective labelling of 5-HT1A and 5HT1B binding sites in bovine brain" BRAIN RESEARCH 344, p. 167-171 (1985)]. In this test, the affinity for 5HT1A receptors is determined by the Capacity of the compounds to displace [^3 H]-8-OH-DPAT from the membranes of the rat hippocampus; similarly, the affinity for 5HT1B receptors is determined by the capacity of the compounds to displace [^3 H]-5HT from the membranes of the rat striatum.
(§2) The results recorded in Table II below show the pKi values calculated according to the abovementioned protocol.

In the next experiment the target is T2, 5HT1B receptors (Rattus norvegicus, UniProt P28564).
T2 construct: membranes of the rat striatum; from tissue; host or cells: rat striatum membranes
T2 sequence (P28564 whole entry): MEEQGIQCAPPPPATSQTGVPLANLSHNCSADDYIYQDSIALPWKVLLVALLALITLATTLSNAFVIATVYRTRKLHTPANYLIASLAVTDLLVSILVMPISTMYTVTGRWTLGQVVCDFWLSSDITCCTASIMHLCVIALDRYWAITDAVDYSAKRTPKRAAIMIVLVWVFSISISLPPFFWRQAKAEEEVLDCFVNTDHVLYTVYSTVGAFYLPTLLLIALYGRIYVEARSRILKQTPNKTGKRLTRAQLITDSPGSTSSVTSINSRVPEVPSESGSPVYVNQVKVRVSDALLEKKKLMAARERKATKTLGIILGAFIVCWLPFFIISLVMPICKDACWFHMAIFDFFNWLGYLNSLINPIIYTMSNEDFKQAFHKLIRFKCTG
Kind of experiment: Binding test: displacement of [^3 H]-5HT from membranes of the rat striatum (5HT1B). Conditions: for Ki: rat striatum membranes, [^3 H]-5HT, read-out: BINDING pKi 5HT1B (converted). On the procedure: as §1, §2

The test system of a further experiment is 5HT1B. Description: Penile erection test (5HT1B agonist potential). The experiment is classed as in vivo. Conditions: rats; for minimal effective dose: Rattus norvegicus, sc, administered subcutaneously, read-out: ERECTION OF THE PENIS, minimum dose which leads to an erection of the penis, subcutaneous; for ERECTION OF THE PENIS, activity when administered orally: administered orally (PO). The source says:
This test, carried out according to the protocol of BERENDSEN H.H.G. and BROEKKAMP C.L.E. ["Drug induced penile erections in rats: indication of serotonin 1B receptor mediation--EUROPEAN J. PHARMACOL. 135, 279-287 (1987")]enables the 5HT1B agonist potentials of the various compounds to be assessed.
The results recorded in Table II below show the minimum dose in mg.kg^-1 administered subcutaneously which leads to an erection of the penis in rats, as well as the activity when administered orally.

The values below come from US4971969A, “Pharmaceutical composition containing 1-(mono- or bis(trifluoromethyl)-2-pyridinyl)piperazines” (priority 1988, dated 1990).

Structures are written as SMILES. pKi: −log10 of the molar value. Where two headings read alike, the source gives them in different places.

`FC(F)(F)c1ccc(N2CCNCC2)nc1` [Compound 1, 1-(5-trifluoromethyl-2-pyridinyl)piperazine]: the Ki at 5HT1A receptors is over 10 µM; at 5HT1B receptors, 501 nM. Also, the minimal effective dose in the experiment on 5HT1B was determined as 1 mg/kg. For the same molecule, the “ERECTION OF THE PENIS, activity when administered orally” value (from here on “ERECTION OF THE PENIS, activity”) in the experiment with 5HT1B is over 46 mg/kg.
In the case of `FC(F)(F)c1ccnc(N2CCNCC2)c1` [Compound 2, 1-(4-trifluoromethyl-2-pyridinyl)piperazine], on 5HT1A receptors, the Ki is 2.51 µM. Moreover, the Ki at 5HT1B receptors is 126 nM. Besides, in the experiment with 5HT1B, the minimal effective dose was determined as 1 mg/kg and the “ERECTION OF THE PENIS, activity” value came out at 2.2 mg/kg.
As usually defined, the pKi is −log10 of the Ki, conventionally taken in molar units. Higher therefore signals a low Ki. `FC(F)(F)c1ccc(N2CCNCC2)nc1Cl` [Compound 3] showed a pKi at 5HT1A receptors of 5.60. On 5HT1B receptors, the pKi was 7.00. In the experiment with 5HT1B, the minimal effective dose worked out at 0.46 mg/kg and the “ERECTION OF THE PENIS, activity” value was 4.6 mg/kg.
As to `FC(F)(F)c1cnc(N2CCNCC2)cc1C(F)(F)F` [Compound 4, 1-[4,5-bis(trifluoromethyl)-2-pyridinyl]piperazine], at 5HT1A receptors, the Ki was 79.4 µM. For the same molecule, the Ki on 5HT1B receptors is 398 nM. For the same molecule, in the experiment with 5HT1B, the minimal effective dose stood at 10 mg/kg and the “ERECTION OF THE PENIS, activity” value turned out to be 2.2 mg/kg.
The matching figures for `FC(F)(F)c1cnc(N2CCNCC2)c(Cl)c1` [Compound 5, 1-(3-chloro-5-trifluoromethyl-2-pyridinyl)piperazine]: 3.98 µM, 501 nM, 4.6 mg/kg and 10 mg/kg.
